Experimental data reported in patent publication US11078198B2 (BRISTOL-MYERS SQUIBB COMPANY, priority 2017, dated 2021).
pEC50: −log10 of the molar value.

Biological target: T1, human FXR (Homo sapiens, UniProt Q96RI1)
T1 construct: expressed in transfected cells; host or cells: HEK293 cells stably carrying a 5xGal4-response-element firefly luciferase reporter, transiently transfected with pcDNA3.1-Gal4-FXR
T1 sequence (Q96RI1 262-486 limits assumed): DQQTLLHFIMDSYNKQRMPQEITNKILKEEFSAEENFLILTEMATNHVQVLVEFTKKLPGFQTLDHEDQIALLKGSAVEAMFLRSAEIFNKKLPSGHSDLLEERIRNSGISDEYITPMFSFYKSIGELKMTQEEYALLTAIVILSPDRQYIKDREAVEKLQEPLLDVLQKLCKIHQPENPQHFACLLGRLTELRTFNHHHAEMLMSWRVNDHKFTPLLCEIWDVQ
Test: transient human FXR/Gal4-luciferase reporter assay
Type: cell-based
Conditions: Gal4-hFXR transfected HEK293 reporter cells; relative to 8 μM GW-4064
Method in brief: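 HEK293 cells stably carrying a 5×Gal4-response-element firefly luciferase reporter, transiently transfected overnight with a CMV-driven Gal4 DNA-binding domain/human FXR ligand-binding domain fusion.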

`Cn1nc(N2CCC3(C=C(c4c(-c5ccccc5C(F)(F)F)noc4C4CC4)C3)CC2)c2ccc(C(=O)O)cc21` [Example 134, 3-(2-(5-Cyclopropyl-3-(2-(trifluoromethyl)phenyl)isoxazol-4-yl)-7-azaspiro[3.5]non-1-en-7-yl)-1-methyl-1H-indazole-6-carboxylic acid] was tested. Which pEC50 did it give?
Its pEC50 is 5.48.

`O=C(O)c1ccc2cc(N3CCC4(C=C(c5c(-c6cnccc6C(F)(F)F)noc5C5CC5)C4)CC3)ccc2n1` [Example 154, 6-(2-(5-Cyclopropyl-3-(4-(trifluoromethyl)pyridin-3-yl)isoxazol-4-yl)-7-azaspiro[3.5]non-1-en-7-yl)quinoline-2-carboxylic acid] was tested. Which pEC50 did it give?
Its pEC50 is 6.26.

With `O=C(O)c1cc(OC(F)F)c2cc(N3CCC4(C=C(c5c(-c6cnccc6C(F)(F)F)noc5C5CC5)C4)CC3)ccc2n1` [Example 75, 6-(2-(5-Cyclopropyl-3-(4-(trifluoromethyl)pyridin-3-yl)isoxazol-4-yl)-7-azaspiro[3.5]non-1-en-7-yl)-4-(difluoromethoxy)quinoline-2-carboxylic acid] as the molecule, how does the pEC50 read?
Its pEC50 is 7.46.

How did the pEC50 turn out when `O=C(O)c1cc2ccc(N3CCC4(C=C(c5c(-c6cnccc6C(F)(F)F)noc5C5CC5)C4)CC3)cc2cn1` [Example 160, 7-(2-(5-Cyclopropyl-3-(4-(trifluoromethyl)pyridin-3-yl)isoxazol-4-yl)-7-azaspiro[3.5]non-1-en-7-yl)isoquinoline-3-carboxylic acid] was run?
The pEC50 was 5.79.

`O=C(O)c1ccc(OC2CCC3(CC2)CC(O)(c2c(-c4c(Cl)cccc4Cl)noc2C2CC2)C3)cc1` (centres unmarked) [Example 208, 4-((2-(5-Cyclopropyl-3-(2,6-dichlorophenyl)isoxazol-4-yl)-2-hydroxyspiro[3.5]nonan-7-yl)oxy)benzoic acid] was tested. Which pEC50 did it give?
Its pEC50 is 5.18.

With `O=C(O)c1cc(F)c2nc(N3C4CCC3CC3(CC(c5c(-c6c(Cl)cccc6Cl)noc5C5CC5)C3)C4)sc2c1` (centres unmarked) [Example 15, 2-(3′-(5-Cyclopropyl-3-(2,6-dichlorophenyl)isoxazol-4-yl)-8-azaspiro[bicyclo[3.2.1]octane-3,1′-cyclobutan]-8-yl)-4-fluorobenzo[d]thiazole-6-carboxylic acid] as the molecule, how does the pEC50 read?
Its pEC50 is 6.52.

`O=C(O)c1ccc(N2[C@@H]3CC[C@H]2CC2(C=C(c4c(-c5c(Cl)cccc5Cl)noc4C4CC4)C2)C3)nc1` (mixture of isomers) [Example 12, 6-(3′-(5-Cyclopropyl-3-(2,6-dichlorophenyl)isoxazol-4-yl)-8-azaspiro[bicyclo[3.2.1]octane-3,1′-cyclobutan]-2′-en-8-yl)nicotinic acid] was tested. Which pEC50 did it give?
Its pEC50 is 6.74.

`Cc1c(N2CCC3(C=C(c4c(-c5ccccc5C(F)(F)F)noc4C4CC4)C3)CC2)ccc2cc(C(=O)O)cnc12` [Example 170, 7-(2-(5-Cyclopropyl-3-(2-(trifluoromethyl)phenyl)isoxazol-4-yl)-7-azaspiro[3.5]non-1-en-7-yl)-8-methylquinoline-3-carboxylic acid] was tested. Which pEC50 did it give?
Its pEC50 is 5.76.

How did the pEC50 turn out when `O=C(O)c1cc(C(F)(F)F)c2cc(N3CCC4(C=C(c5c(-c6c(F)cccc6Cl)noc5C5CC5)C4)CC3)ccc2n1` [Example 88, 6-(2-(3-(2-Chloro-6-fluorophenyl)-5-cyclopropylisoxazol-4-yl)-7-azaspiro[3.5]non-1-en-7-yl)-4-(trifluoromethyl)quinoline-2-carboxylic acid] was run?
Its pEC50 is 6.82.

`O=C(O)c1cc(C(F)(F)F)c2cc(N3CCC4(C=C(c5c(C(C6CC6)C6CC6)noc5C5CC5)C4)CC3)ccc2n1` [Example 212, 6-(2-(5-Cyclopropyl-3-(dicyclopropylmethyl)isoxazol-4-yl)-7-azaspiro[3.5]non-1-en-7-yl)-4-(trifluoromethyl)quinoline-2-carboxylic acid] was tested. Which pEC50 did it give?
The pEC50 was 5.81.

`O=C(O)c1ccc(N2CCC3(CC2)COC(c2c(-c4ccccc4OC(F)(F)F)noc2C2CC2)O3)nc1` (centres unmarked) [Example 43, 6-(2-(5-Cyclopropyl-3-(2-(trifluoromethoxy)phenyl)isoxazol-4-yl)-1,3-dioxa-8-azaspiro[4.5]decan-8-yl)nicotinic acid] was tested. Which pEC50 did it give?
Its pEC50 is 5.28.
